This passage reports LC-MS/MS product assay results from publication PMC6140472 (Proceedings of the National Academy of Sciences of the …, 2018).

Molecules are shown by their SMILES.

The target in this assay is T1, MhFPPS (MhIDS-2), full-length (Murgantia histrionica, UniProt A0A343W970).
T1 sequence (A0A343W970 1-405): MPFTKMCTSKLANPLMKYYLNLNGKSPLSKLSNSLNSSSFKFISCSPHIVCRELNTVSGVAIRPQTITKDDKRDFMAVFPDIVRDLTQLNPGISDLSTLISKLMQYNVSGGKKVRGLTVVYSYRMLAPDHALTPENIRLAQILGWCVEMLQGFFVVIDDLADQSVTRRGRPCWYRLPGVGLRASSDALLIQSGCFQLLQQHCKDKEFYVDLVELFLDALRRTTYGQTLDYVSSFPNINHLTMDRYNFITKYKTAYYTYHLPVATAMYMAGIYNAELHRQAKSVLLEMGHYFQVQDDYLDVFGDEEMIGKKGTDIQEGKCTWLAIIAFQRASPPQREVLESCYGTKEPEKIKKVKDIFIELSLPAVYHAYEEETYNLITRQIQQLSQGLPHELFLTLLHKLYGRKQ
Nature of the assay: LC-MS/MS product assay. Type of assay: biochemical.

`CC(C)=CCOP(=O)(O)OP(=O)(O)O` [DMAPP]: the LC-MS/MS product assay result (co-substrate IPP) was “MhIDS-2 produced (E,E)-FPP from IPP and DMAPP”.
Regarding `C=C(C)CCOP(=O)(O)OP(=O)(O)O` [IPP], where the note is “co-substrate DMAPP”, the LC-MS/MS product assay entry was “MhIDS-2 produced (E,E)-FPP from IPP and DMAPP”.
